Experiments:
Type in all cases: cell-based
PACA-2 = assay: MTS assay (cell growth inhibition), PACA-2; settings: PACA-2 cells, 72 hours incubation with test compound; concentration not given
Outline: (§1)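 First, seed 3000 cells per well in low-serum (1% FBS) DMEM and culture 18 h. Next, add compounds prepared at 300× in DMSO and diluted 1:40 in DMEM; incubate 72 h. Finally, add MTS/PMS for 4 h and measure absorbance at 492 nm.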

DLD-1 = assay: MTS assay (cell growth inhibition), DLD-1; settings: DLD-1 cells, 72 hours incubation with test compound; concentration not given
Outline: as §1

NCI-H1299 = assay: MTS assay (cell growth inhibition), NCI-H1299; settings: NCI-H1299 cells, 72 hours incubation with test compound; concentration not given
Outline: as §1

Kato III = assay: MTS assay (cell growth inhibition), Kato III; settings: Kato III cells, 72 hours incubation with test compound; concentration not given
Outline: as §1

PC-3 = assay: MTS assay (cell growth inhibition), PC-3; settings: PC-3 cells, 72 hours incubation with test compound; concentration not given
Outline: as §1

MDA-MB = assay: MTS assay (cell growth inhibition), MDA-MB; settings: MDA-MB cells, 72 hours incubation with test compound; concentration not given
Outline: as §1

| SMILES | MTS CELL KILL DATA (% INHIBITION) PACA-2 (PACA-2) | MTS CELL KILL DATA (% INHIBITION) DLD-1 (DLD-1) | MTS CELL KILL DATA (% INHIBITION) NCI-H1299 (NCI-H1299) | MTS CELL KILL DATA (% INHIBITION) Kato III (Kato III) | MTS CELL KILL DATA (% INHIBITION) PC-3 (PC-3) | MTS CELL KILL DATA (% INHIBITION) MDA-MB (MDA-MB) |
| --- | --- | --- | --- | --- | --- | --- |
| O=C1c2cnc3[nH]ncc3c2C(=O)N1Cc1c(F)ccc(Cl)c1F [Example 34, 7-(3-chloro-2,6-difluorobenzyl)pyrazolo[3,4-b]pyrrolo[3,4-d]pyridine-6,8(3H,7H)-dione] | A (A = 80-100% INHIBITION) | A (A = 80-100% INHIBITION) | A (A = 80-100% INHIBITION) | A (A = 80-100% INHIBITION) | A (A = 80-100% INHIBITION) | A (A = 80-100% INHIBITION) |
| Cc1ccc2c(c1)N(CCN1C(=O)c3cnc4[nH]ncc4c3C1=O)C(C)(C)CC2C (stereo not drawn) [Example 29, 7-[2-(2,2,4,7-tetramethyl-3,4-dihydroquinolin-1(2H)-yl)ethyl]pyrazolo[3,4-b]pyrrolo[3,4-d]pyridine-6,8(3H,7H)-dione] | A (A = 80-100% INHIBITION) | C (C = <50% INHIBITION) | C (C = <50% INHIBITION) | C (C = <50% INHIBITION) | A (A = 80-100% INHIBITION) | A (A = 80-100% INHIBITION) |
| O=C1c2cnc3[nH]ncc3c2C(=O)N1CC1=Cc2ccccc2S1(=O)=O [Example 119, 7-[(1,1-dioxido-1-benzothien-2-yl)methyl]pyrazolo[3,4-b]pyrrolo[3,4-d]pyridine-6,8(3H,7H)-dione] | C (C = <50% INHIBITION) | C (C = <50% INHIBITION) | C (C = <50% INHIBITION) | C (C = <50% INHIBITION) | C (C = <50% INHIBITION) | B (B = 50-79% INHIBITION) |
| O=C1c2cnc3[nH]ncc3c2C(=O)N1Cc1ccncc1 [Example 43, 7-(pyridin-4-ylmethyl)pyrazolo[3,4-b]pyrrolo[3,4-d]pyridine-6,8(3H,7H)-dione] | A (A = 80-100% INHIBITION) | C (C = <50% INHIBITION) | C (C = <50% INHIBITION) | C (C = <50% INHIBITION) | A (A = 80-100% INHIBITION) | A (A = 80-100% INHIBITION) |
| O=C1c2cnc3[nH]ncc3c2C(=O)N1CCc1ccncc1 [Example 36, 7-(2-pyridin-4-ylethyl)pyrazolo[3,4-b]pyrrolo[3,4-d]pyridine-6,8(3H,7H)-dione] | B (B = 50-79% INHIBITION) | C (C = <50% INHIBITION) | C (C = <50% INHIBITION) | C (C = <50% INHIBITION) | A (A = 80-100% INHIBITION) | A (A = 80-100% INHIBITION) |
| COc1cccc(CN2C(=O)c3cnc4[nH]ncc4c3C2=O)c1OC [Example 92, 7-(2,3-dimethoxybenzyl)pyrazolo[3,4-b]pyrrolo[3,4-d]pyridine-6,8(3H,7H)-dione] | C (C = <50% INHIBITION) | C (C = <50% INHIBITION) | C (C = <50% INHIBITION) | C (C = <50% INHIBITION) | C (C = <50% INHIBITION) | C (C = <50% INHIBITION) |
| O=C1c2cnc3[nH]ncc3c2C(=O)N1Cc1ccccc1I [Example 111, 7-(2-iodobenzyl)pyrazolo[3,4-b]pyrrolo[3,4-d]pyridine-6,8(3H,7H)-dione] | C (C = <50% INHIBITION) | C (C = <50% INHIBITION) | C (C = <50% INHIBITION) | C (C = <50% INHIBITION) | C (C = <50% INHIBITION) | C (C = <50% INHIBITION) |
| O=C1c2cnc3[nH]nc(-c4cccc(F)c4)c3c2C(=O)N1CCc1ccccc1 [Example 165, 1-(3-fluorophenyl)-7-(2-phenylethyl)pyrazolo[3,4-b]pyrrolo[3,4-d]pyridine-6,8(3H,7H)-dione] | A (A = 80-100% INHIBITION) | A (A = 80-100% INHIBITION) | C (C = <50% INHIBITION) | A (A = 80-100% INHIBITION) | A (A = 80-100% INHIBITION) | A (A = 80-100% INHIBITION) |
| O=C1c2cnc3[nH]ncc3c2C(=O)N1CCSc1nc2ccccc2s1 [Example 32, 7-[2-(1,3-benzothiazol-2-ylthio)ethyl]pyrazolo[3,4-b]pyrrolo[3,4-d]pyridine-6,8(3H,7H)-dione] | C (C = <50% INHIBITION) | C (C = <50% INHIBITION) | C (C = <50% INHIBITION) | B (B = 50-79% INHIBITION) | A (A = 80-100% INHIBITION) | C (C = <50% INHIBITION) |
| CC(C)c1ccc(CN2C(=O)c3cnc4[nH]ncc4c3C2=O)cc1 [Example 14, 7-(4-isopropylbenzyl)pyrazolo[3,4-b]pyrrolo[3,4-d]pyridine-6,8(3H,7H)-dione] | C (C = <50% INHIBITION) | C (C = <50% INHIBITION) | C (C = <50% INHIBITION) | B (B = 50-79% INHIBITION) | A (A = 80-100% INHIBITION) | A (A = 80-100% INHIBITION) |
| O=C1c2cnc3[nH]ncc3c2C(=O)N1CCCc1cccnc1 [Example 87, 7-(3-pyridin-3-ylpropyl)pyrazolo[3,4-b]pyrrolo[3,4-d]pyridine-6,8(3H,7H)-dione] | C (C = <50% INHIBITION) | C (C = <50% INHIBITION) | C (C = <50% INHIBITION) | C (C = <50% INHIBITION) | C (C = <50% INHIBITION) | C (C = <50% INHIBITION) |
| CC(CCN1C(=O)c2cnc3[nH]ncc3c2C1=O)c1ccccc1 (stereo not drawn) [Example 53, 7-(3-phenylbutyl)pyrazolo[3,4-b]pyrrolo[3,4-d]pyridine-6,8(3H,7H)-dione] | A (A = 80-100% INHIBITION) | C (C = <50% INHIBITION) | C (C = <50% INHIBITION) | C (C = <50% INHIBITION) | A (A = 80-100% INHIBITION) | A (A = 80-100% INHIBITION) |
| O=C1c2cnc3[nH]nc(-c4ccc(F)c(F)c4)c3c2C(=O)N1CCc1ccccc1 [Example 162, 1-(3,4-difluorophenyl)-7-(2-phenylethyl)pyrazolo[3,4-b]pyrrolo[3,4-d]pyridine-6,8(3H,7H)-dione] | B (B = 50-79% INHIBITION) | C (C = <50% INHIBITION) | C (C = <50% INHIBITION) | C (C = <50% INHIBITION) | C (C = <50% INHIBITION) | C (C = <50% INHIBITION) |
| CC(C)OCCN1C(=O)c2cnc3[nH]ncc3c2C1=O [Example 16, 7-(2-isopropoxyethyl)pyrazolo[3,4-b]pyrrolo[3,4-d]pyridine-6,8(3H,7H)-dione] | B (B = 50-79% INHIBITION) | C (C = <50% INHIBITION) | C (C = <50% INHIBITION) | C (C = <50% INHIBITION) | C (C = <50% INHIBITION) | B (B = 50-79% INHIBITION) |
| O=C1c2cnc3[nH]ncc3c2C(=O)N1Cc1cc(Cl)ccc1Cl [Example 61, 7-(2,5-dichlorobenzyl)pyrazolo[3,4-b]pyrrolo[3,4-d]pyridine-6,8(3H,7H)-dione] | C (C = <50% INHIBITION) | B (B = 50-79% INHIBITION) | C (C = <50% INHIBITION) | B (B = 50-79% INHIBITION) | C (C = <50% INHIBITION) | A (A = 80-100% INHIBITION) |
| O=C1c2cnc3[nH]ncc3c2C(=O)N1Cc1cccc(I)c1 [Example 101, 7-(3-iodobenzyl)pyrazolo[3,4-b]pyrrolo[3,4-d]pyridine-6,8(3H,7H)-dione] | C (C = <50% INHIBITION) | B (B = 50-79% INHIBITION) | C (C = <50% INHIBITION) | A (A = 80-100% INHIBITION) | A (A = 80-100% INHIBITION) | A (A = 80-100% INHIBITION) |
